SMILES strings stand for the structures.

Holding throughout (assay type): functional
The species entered for experiment [1] is Homo sapiens. Kind of experiment: Percent viscosity reduction after 15 min was tested for in vitro mucolytic activity using pooled human sputum adjusted to pH 7.5 and compared with 0.06 M NAC.
For experiment [2], the species on record is Homo sapiens. The experiment is described as follows: Percent viscosity reduction after 15 min was tested for in vitro mucolytic activity using pooled human sputum adjusted to pH 7.5 and compared with saline by 0.03 M solution.
The species entered for experiment [3] is Homo sapiens. The experiment is described as follows: Percent viscosity reduction after 10 min was tested for in vitro mucolytic activity using pooled human sputum adjusted to pH 7.5 and compared with saline by 0.03 M solution of the compound.
The species named for experiment [4] is Homo sapiens. Kind of experiment: Percent viscosity reduction after 15 min was tested for in vitro mucolytic activity using pooled human sputum adjusted to pH 7.5 and compared with saline by 0.03 M solution of the compound.
The species entered for experiment [5] is Homo sapiens. The experiment is described as follows: Percent viscosity reduction after 5 min was tested for in vitro mucolytic activity using pooled human sputum adjusted to pH 7.5 and compared with saline by 0.03 M solution of the compound.

Consider `O=C(O)CNC(=O)c1ccc(NC(=O)CS)cc1`, for which the Viscosity in the experiment filed under Homo sapiens [1] came out at 15%. In the experiment filed under Homo sapiens [2], the Viscosity reduction worked out at 73%.

Take `O=C(O)CNC(=O)c1cccc(NC(=O)CS)c1`: the Viscosity in the experiment listed under Homo sapiens [3] is recorded as 84%; in the experiment listed under Homo sapiens [4] it was 90%; in the experiment filed under Homo sapiens [5], 64%. The compound also returned a Viscosity reduction in the experiment filed under Homo sapiens [2] of 60%.

On to `NCCN.O=C(O)CNC(=O)c1cccc(NC(=O)CS)c1`, for which the Viscosity reduction in the experiment filed under Homo sapiens [2] came to 44%.

For `N.O=C(O)CNC(=O)c1cccc(NC(=O)CS)c1`, the Viscosity reduction in the experiment listed under Homo sapiens [2] is listed as 59%.

Regarding `CC(=O)N[C@@H](CS)C(=O)O` [ACETYLCYSTEINE], the Viscosity is 38% in the experiment filed under Homo sapiens [3], 31% in the experiment listed under Homo sapiens [4] and 27% in the experiment filed under Homo sapiens [5].

`O=C([O-])CNC(=O)c1cccc(NC(=O)CS)c1.[Na+]` yielded a Viscosity reduction in the experiment filed under Homo sapiens [2] of 56%.

The record behind these values is ChEMBL document CHEMBL1123116, “N-[[(Mercaptoacetyl)amino]benzoyl]glycines as mucolytic agents” (1985).
